# Experimental data taken from US12186402B2, “Polymer materials for delivery of short-chain fatty acids to the intestine for applications in human health and treatment of disease” (The University of Chicago, priority 2017, dated 2025).
# System: allergy to peanuts induced in mice
# Experiment: Induced peanut allergy model: challenge with peanut protein; core body temperature, peanut-specific IgE, IgG1, mMCP-1
# Type: in vivo, mouse
structure (smiles),measurement,setting,value
CCCC(=O)[O-].[Na+] [sodium butyrate],physiological markers and symptoms of an allergic reaction,"Example 8: allergic mice, 2.83 mg per g body weight daily by oral gavage, FIG. 17",not effective
same,core body temperature over time after challenge with peanut protein (protection),"FIG. 19, allergic mice, daily oral treatment",no protection
